≈ marks a conversion by molar mass, not a printed value. Starred links: 1 amine or outer side, 2 acyl side, 3 side chain; linkers in the order of their positions; H or OH if unused. Positions of bridges follow the written chain, without caps; N, C: chain ends. Non-standard residues stand in square brackets, D forms with d. Residues, ends and D or L forms follow the SMILES beside them. *: point of attachment. pTerphenylCO(4''-OnC5H11) = CCCCCOc1ccc(-c2ccc(-c3ccc(C(=O)*)cc3)cc2)cc1; Orn(4R-OH,5R-OH) = O=C([C@H](C[C@@H](O)[C@@H](O)N[*:3])N[*:1])[*:2]; hTyr(3S-OH,4S-OH) = N[C@H](C(=O)O)[C@H](O)[C@@H](O)c1ccc(O)cc1; Pro(3S-OH,4S-Me) = C[C@H]1CN[C@H](C(=O)O)[C@H]1O; Hyp = O=C(O)[C@@H]1C[C@@H](O)CN1
Columns and labels:
Type in all cases: functional
Candida albicans [1] = experiment: Antifungal activity against […] gene deficient Candida albicans assessed as decrease in biofilm formation at 0.25 ug/ml; set-up: scale not given: the % may be the effect or the level left
Candida albicans [2] = experiment: Antifungal activity against Candida albicans assessed as decrease in biofilm formation at 0.25 ug/ml; set-up: scale not given: the % may be the effect or the level left
Candida albicans [3] = experiment: Antifungal activity against Candida albicans grown as planktonic cell after 24 hrs by XTT reduction assay
Candida albicans [4] = experiment: Antifungal activity against […] gene deficient Candida albicans
Candida albicans [5] = experiment: Antifungal activity against Candida albicans TDH3 overexpressing FKS1 gene

SMILES | Activity (Candida albicans [1]) | Activity (Candida albicans [2]) | MIC (Candida albicans [3]) | MIC (Candida albicans [4]) | MIC (Candida albicans [5])
C[C@@H]1[C@H](O)[C@@H](C)/C=C/C=C/C=C/C=C/C=C/C=C/C=C/[C@H](O[C@@H]2O[C@H](C)[C@@H](O)[C@H](N)[C@@H]2O)C[C@@H]2O[C@](O)(C[C@@H](O)C[C@@H](O)[C@H](O)CC[C@@H](O)C[C@@H](O)CC(=O)O[C@H]1C)C[C@H](O)[C@H]2C(=O)O [AMPHOTERICIN B] | 80% | 60% |  |  | 
Nc1nc(=O)[nH]cc1F [FLUCYTOSINE] |  |  | 0.03 mg/L (≈ 0.232 µM) | 0.03 mg/L (≈ 0.232 µM) | 0.03 mg/L (≈ 0.232 µM)
CCCCCOc1ccc(-c2ccc(-c3ccc(C(=O)N[C@H]4C[C@@H](O)[C@@H](O)NC(=O)[C@@H]5[C@@H](O)[C@@H](C)CN5C(=O)[C@H]([C@@H](C)O)NC(=O)[C@H]([C@H](O)[C@@H](O)c5ccc(O)cc5)NC(=O)[C@@H]5C[C@@H](O)CN5C(=O)[C@H]([C@@H](C)O)NC4=O)cc3)cc2)cc1 [ANIDULAFUNGIN] ({pTerphenylCO(4''-OnC5H11)}-[Orn(4R-OH,5R-OH)]T[Hyp][hTyr(3S-OH,4S-OH)]T[Pro(3S-OH,4S-Me)]; lactam 1-C) |  |  | 0.01 mg/L (≈ 0.00877 µM) | 0.01 mg/L (≈ 0.00877 µM) | 0.01 mg/L (≈ 0.00877 µM)
